# From patent US20070191400A1, “Pharmaceutical compositions comprising anti-inflammatory quinazolinecarboxamide derivatives” (Rimonyx Pharmaceuticals Ltd., priority 2004, published 2007)
# Assays:
# [1] = target: T1, Recombinant Human L-Selectin/IgG binding to heparin (Homo sapiens, UniProt P14151); assay: Inhibition of L-selectin binding to heparin (ELISA, immobilized heparin-BSA); conditions: for IC50: compounds tested at 0.01 to 300 μM, representative results, read-out: IC-50, inhibition of L-Selectin binding to heparin; for inhibition at 30 µM: read-out: % Inhibition at 30 microMolar conc. (L-Selectin binding to heparin)
# T1 construct: purchased Research and Development Systems 728-LS
# T1 sequence (P14151 39-332 limits assumed): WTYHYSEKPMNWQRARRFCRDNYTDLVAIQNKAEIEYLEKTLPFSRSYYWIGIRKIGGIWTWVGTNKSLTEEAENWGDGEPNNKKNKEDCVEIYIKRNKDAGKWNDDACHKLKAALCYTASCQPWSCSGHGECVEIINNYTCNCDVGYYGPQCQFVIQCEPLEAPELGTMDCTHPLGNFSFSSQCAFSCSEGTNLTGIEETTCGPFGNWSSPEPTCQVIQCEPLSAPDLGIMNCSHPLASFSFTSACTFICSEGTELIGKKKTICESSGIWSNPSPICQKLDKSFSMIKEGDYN
# Description: An in vitro assay was used to assess the ability of test compounds according to formula I to inhibit the interactions of L-selectin with HS-GAGs. The assay was suitable for determining the concentration required for 50% inhibition (IC-50) for each specific compound. In the assay, the GAG used was heparin. Thus, porcine intestinal mucosa heparin conjugated to Bovine Serum Albumin (Heparin-BSA; Sigma Cat. No. H0403) at 5 mg/ml in Phosphate-Buffered Saline (PBS; pH 6.5) was added to a 96-well polystyrene ELISA plate (NUNC Cat. No. 442404; 0.1 ml per well) and incubated over night at 4° C. Following the incubation, the plate was washed thoroughly, by immersion, with de-ionized water and PBS (pH 6.5). The ELISA plate was then blocked with BSA (ICN Cat. No.160069, 3%, 200 μl per well) for 1 hour at room temperature. Following blocking, the plate was washed with de-ionized water, and then with PBS (pH 6.5) containing Tween 20 (Sigma Cat. No. P-1379, 0.05%). Compounds were synthesized or purchased from suppliers of chemical compounds such as ChemDiv Labs (San Diego, Calif.), dissolved in DMSO, diluted in PBS and added to the wells at various concentrations in the range of 0.01 to 300 μM. Recombinant Human L-Selectin/IgG (Research and Development Systems Cat. No.728-LS) dissolved in PBS supplemented with BSA (0.1%) and calcium chloride (1 mM) was added to the ELISA plate (100 μl per well) and incubated for 60 minutes at room temperature with shaking. Following incubation, the plate was washed with de-ionized water and three times with PBS (pH 6.5) containing Tween 20. Anti-Human IgG Peroxidase Conjugate (1:5000; Sigma Product No. A8667) diluted in PBS supplemented with BSA (0.1%) and calcium chloride (1 mM) was added to the ELISA plate (100 μl per well) and incubated for 30 minutes at room temperature with shaking. The plate was then washed with de-ionized water and three times with PBS (pH 6.5) containing Tween 20. The peroxidase substrate chromogen tetramethyl benzidine (TMB; Dako Cat. No. S1599) was added (100 μl per well) to the ELISA plate and incubated at room temperature. After 15 minutes, ELISA Stop Solution (hydrochloric acid 1N, sulfuric acid 3N) was added (200 μl per well) to stop the peroxidase catalyzed colorimetric reaction. The Optical Density (OD) of the samples was measured at 450 nm using an ELISA plate reader (Dynatech MR5000). Data were analyzed with Graphpad Prism software and IC-50 values were established.
# BALB/c mice [2] = assay: Carrageenan-induced paw edema; format: in vivo, mouse
# Description: Acute edema was induced in the left hind paw of BALB/c mice (12 mice/group) by injecting 0.02 ml of freshly prepared solution of 2% carrageenan (Sigma) after 60 min of test compound administration (Torres, S. R. et al., European Journal of Pharmacology 408: 199-211, 2000). […], which served as a control. Carrageenan was injected under the plantar region of […] and the paw thickness was measured at 2,4 and 24 hours after carrageenan challenge using a Mitutoyo engineer's micrometer expressed as the difference between right and left pad as mean ±SEM.
# [3] = target: T2, CMV envelope glycoprotein B binding to immobilized heparin (Human cytomegalovirus, UniProt P06473); assay: Inhibition of CMV envelope glycoprotein B binding to immobilized heparin (ELISA); conditions: for inhibition at 30 µM: read-out: % Inhibition at 30 microMolar conc. (CMV envelope glycoprotein B binding to immobilized heparin); for inhibition at 100 µM: read-out: % Inhibition at 100 microMolar conc. (CMV envelope glycoprotein B binding to immobilized heparin)
# T2 construct: purchased Research Diagnostics, INC; RDI-RCMVAG-B
# T2 sequence (P06473 32-906): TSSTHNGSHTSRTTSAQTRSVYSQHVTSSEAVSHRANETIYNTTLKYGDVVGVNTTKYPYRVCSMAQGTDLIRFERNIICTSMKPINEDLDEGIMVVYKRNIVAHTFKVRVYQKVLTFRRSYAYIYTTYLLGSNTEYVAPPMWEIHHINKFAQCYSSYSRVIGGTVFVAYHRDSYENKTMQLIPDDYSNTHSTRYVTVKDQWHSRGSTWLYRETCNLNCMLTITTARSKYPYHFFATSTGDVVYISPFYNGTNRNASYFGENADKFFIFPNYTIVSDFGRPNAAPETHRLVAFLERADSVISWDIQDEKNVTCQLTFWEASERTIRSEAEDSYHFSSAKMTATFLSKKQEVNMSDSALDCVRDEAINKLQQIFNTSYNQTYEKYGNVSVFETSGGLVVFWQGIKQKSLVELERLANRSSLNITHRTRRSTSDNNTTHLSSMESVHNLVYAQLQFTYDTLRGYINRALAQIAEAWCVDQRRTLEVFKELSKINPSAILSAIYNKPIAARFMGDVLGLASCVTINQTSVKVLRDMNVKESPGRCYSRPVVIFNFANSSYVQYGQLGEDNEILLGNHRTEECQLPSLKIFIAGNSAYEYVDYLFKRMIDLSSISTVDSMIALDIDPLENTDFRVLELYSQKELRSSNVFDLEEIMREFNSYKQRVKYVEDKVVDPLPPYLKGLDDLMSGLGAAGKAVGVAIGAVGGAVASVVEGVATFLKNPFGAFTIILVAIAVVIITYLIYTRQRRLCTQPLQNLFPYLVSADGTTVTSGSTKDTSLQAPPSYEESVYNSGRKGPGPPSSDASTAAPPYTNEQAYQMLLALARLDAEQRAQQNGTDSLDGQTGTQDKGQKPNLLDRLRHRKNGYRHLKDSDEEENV
# Description: Porcine intestinal mucosa heparin conjugated to Bovine Serum Albumin (Heparin-BSA; Sigma Cat. No. H0403) at 5 mg/ml in Phosphate-Buffered Saline (PBS; pH 6.5) was added to a 96-well polystyrene ELISA plate (NUNC Cat. No. 442404; 0.1 ml per well) and incubated over night at 4° C. Following the incubation, the plate was washed consecutively, by immersion, with de-ionized water and PBS (pH 6.5). The ELISA plate was then blocked with BSA (ICN Cat. No. 160069, 3%, 200 μl per well) for 1 hour at room temperature. Following blocking, the plate was washed with de-ionized water, and then with PBS (pH 6.5) plus Tween 20 (0.05%). CMV envelope glycoprotein B (Research Diagnostics, INC. Cat. No. RDI-RCMVAG-B) dissolved in PBS (supplemented with BSA (0.1%)) was added to the ELISA plate (100 μl per well) and incubated for 60 minutes at room temperature with shaking. Following incubation, the plate was washed with de-ionized water and with PBS (pH 6.5) plus Tween. Mouse anti-human Cytomegalovirus gB antibody (Research Diagnostics, INC. Cat. No. RDI-CMVG Babm) diluted in PBS (supplemented with BSA(0.1%)), 1:2000, was added to the ELISA plate (100 μl per well) and incubated for 90 minutes at room temperature with shaking. Following the incubation, the plate was washed with de-ionized water and PBS (pH 6.5) plus Tween. Goat anti-Mouse IgG (H&L) Peroxidase Conjugated antibody (Chemicon International, Inc. Cat. No. AP124P) diluted in PBS (supplemented with BSA (0.1%)), 1:1000, was added to the ELISA plate (100 μl per well) and incubated for 30 minutes at room temperature with shaking. Following the incubation, the plate was washed with de-ionized water and with PBS (pH 6.5) plus Tween. The peroxidase substrate chromogen, TMB (Dako Cat. No. S1599) was added (100 μl per well) to the ELISA plate and incubated at room temperature. After 15 minutes, ELISA Stop Solution (hydrochloric acid iN, sulfuric acid 3N) was added (200 μl per well) to stop the peroxidase catalyzed colorimetric reaction. The Optical Density (OD) of the samples was measured at 450 nm using an ELISA plate reader (Dynatech MR5000).
# The CMV envelope glycoprotein B (GBVP) binding assay described above was used to screen a synthetic chemical compound collection on 96-well plates. The compound collection was purchased from ChemDiv Inc. (San Diego, Calif.). […] Individual compounds at a final concentration of 30 or 100 μM were co-incubated with the GBVP on plates containing immobilized heparin and, following washing, bound GBVP was detected with anti-CMV GBVP antibody and secondary antibody conjugated to horseradish peroxidase, as described above. Following color development, the % inhibition compared to control (no compound) for every compound was determined. Compounds that inhibited at least 30% of the signal were scored as hits.
# BALB/c mice [4] = assay: Thioglycollate-induced leukocyte and neutrophil infiltration into mouse peritoneum; format: in vivo; conditions: 10 mg/kg i.p.
# Description: BALB/c mice (Velaz, Prague; 6 weeks old, ˜20 g in weight, 15 mice/group) received intraperitoneal injection of an inhibitor compound in 0.2 ml DMSO/Tween/sterile saline 1 hour before administration of thioglycollate (Sigma). Control groups received vehicle and sham controls received no thioglycollate. Mice were injected intraperitoneally with 1 ml of 3% thioglycollate broth (Xie, X. et al., J. Biol. Chem., 275, 34818-34825, 2000). Mice were sacrificed after 3 hours, and the peritoneal cavities were lavaged with 5 ml of ice-cold saline containing 2 mM EDTA to prevent clotting. After red blood cell lysis, leukocytes were counted in a hemocytometer. Neutrophils were counted after staining with Türck's reagent (Merck, Darmstadt, Germany). Data was expressed as mean ±SEM, and statistical analysis was performed by Student t test. A value of p<0.05 was taken to denote statistical significance.
# BALB/c mice [5] = assay: Delayed-type hypersensitivity (DTH), oxazolone mouse ear-swelling test; format: in vivo; conditions: 25 mg/kg per os, 1 hr prior to challenge; 24 hours after challenge
# Description: BALB/c mice (Velaz, Prague, Czech Republic; 8 weeks old; 15 animals per group) were sensitized by topical application of a 2% oxazolone (4-ethoxymethylene -2-phenyl-2-oxazoline-5-one; Sigma, St Louis, Mo.) solution in acetone/olive oil (4:1 vol/vol) to shaved abdomen (50 μl) and to each paw (5 μl) (Lange-Asschenfeldt B. et al., Blood 99:538-545, 2002). Five days after sensitization, right ears were challenged by topical application of 10 μl of a 1% oxazolone solution, whereas left ears were treated with vehicle alone. Compounds were administered 1 hr prior to challenge. The extent of inflammation was measured 24 hours after challenge, using the mouse ear-swelling test. Animals were numbered (tail marking) and weighed and the thickness of both ears was recorded with a constant-loading dial micrometer (Mitutoyo, Tokyo). The unpaired Student t-test was used for statistical analyses.
compound,measurement,setting,value
"2-[[2-[[(3-chlorophenyl)methyl]thio]-3-pentyl-3,4-dihydro-4-oxo-N-(4-methylpiperazin -7-quinazolinecarboxamide [Compound 8]",% Inhibition at 30 microMolar conc. (L-Selectin binding to heparin),[1]; 30 microMolar,59%
"O=C(NCCCN1CCOCC1)c1ccc2c(=O)n(-c3ccc(F)cc3)c(SCc3ccc(Cl)cc3)nc2c1 [Compound 1, 2-[[(4-chlorophenyl)methyl]thio]-3-(4-fluorophenyl)-3,4-dihydro-4-oxo-N-[3-(4-morpholinyl)propyl]-7-quinazolinecarboxamide]",Inhibition of paw edema (difference in paw thickness),"BALB/c mice [2]; 1 mg/kg oral, 24 hours after induction",inhibited paw edema
same,IC50,[1],7 ± 1 µM
same,inhibition at 30 µM,[3],33%
same,Leukocyte migration into the peritoneal cavity,"BALB/c mice [4]; 1 hour before thioglycollate, 3 hours",inhibited efficiently
same,Neutrophil accumulation in the peritoneal cavity,BALB/c mice [4]; 3 hours after thioglycollate,48 % of control value
"Cc1ccc(CSc2nc3cc(C(=O)NCCCN4CCOCC4)ccc3c(=O)n2-c2ccc(F)cc2)cc1 [Compound 2, 2-[[(4-methylphenyl)methyl]thio]-3-(4-fluorophenyl)-3,4-dihydro-4-oxo-N-[3-(4-morpholinyl)propyl]-7-quinazolinecarboxamide]",Inhibition of DTH (difference in ear thickness),BALB/c mice [5],inhibited DTH
same,IC50,[1],24 ± 1.2 µM
same,inhibition at 100 µM,[3],86%
"O=C(NCCCN1CCOCC1)c1ccc2c(=O)n(-c3ccc(F)cc3)c(SCc3cccc(F)c3)nc2c1 [Compound 3, 2-[[(3-fluorophenyl)methyl]thio]-3-(4-fluorophenyl)-3,4-dihydro-4-oxo-N-[3-(4-morpholinyl)propyl]-7-quinazolinecarboxamide]",IC50,[1],22 ± 1.2 µM
same,inhibition at 30 µM,[3],85%
same,inhibition at 100 µM,[3],88%
"COCCNC(=O)c1ccc2c(=O)n(Cc3ccco3)c(SCc3cc(=O)n4ccccc4n3)nc2c1 [Compound 5, 2-[[(4-oxo-4H-pyrido [1,2-a]pyrimidin-2-yl)methyl]thio]-3-(2-furanylmethyl) -3,4-dihydro-4-oxo-N-(2-methoxyethyl)-7-quinazolinecarboxamide]",inhibition at 30 µM,[1],50%
same,inhibition at 100 µM,[1]; read-out: % Inhibition at 100 microMolar conc. (L-Selectin binding to heparin),52%
"O=C(CSc1nc2cc(C(=O)NCCCN3CCCCC3)ccc2c(=O)n1CC1CCCO1)c1ccccc1 (stereo not shown) [Compound 6, 2-[(2-oxo-2-phenylethyl)thio]-3-[(tetrahydro-2-furanyl)methyl]-3,4-dihydro-4-oxo -N-[3-(1-piperidinyl)propyl]-7-quinazolinecarboxamide]",inhibition at 30 µM,[1],30%
"CCCCCn1c(SCc2ccncc2)nc2cc(C(=O)N3CCN(C(=O)OCC)CC3)ccc2c1=O [Compound 7, 4-[[3,4-dihydro-4-oxo-3-pentyl-2-[(4-pyridinylmethyl)thio]-7-quinazolinyl]carbonyl]-1-piperazinecarboxylic acid ethyl ester]",inhibition at 30 µM,[1],83%
"CC(C)Cn1c(S)nc2cc(C(=O)NCCCn3ccnc3)ccc2c1=O [Compound 9, 2-mercapto-3-(2-methylpropyl-3)-3,4-dihydro-4-oxo-N-[3-(1N-imidazol-1-yl)propyl]-7-quinazolinecarboxamide]",Inhibition of paw edema (difference in paw thickness),"BALB/c mice [2]; 50 mg/kg oral, measured after 24 hours",inhibited paw edema
same,IC50,[1],21 ± 1.6 µM
CN1CCN(C(=O)c2ccc3c(=O)n(-c4ccccc4)c(SCC(=O)C(C)(C)C)nc3c2)CC1 [Compound 10],IC50,[1],22 ± 1.5 µM
